Results as given in US10105437B2, “Epitopes related to coeliac disease” (BTG International Limited, priority 2004, dated 2018).

How the values were obtained:
[1] = tested on: PBMC from HLA-DQ2+ coeliac subjects; experiment: Interferon gamma ELISPOT, hordein 20mer first round library after barley challenge; assay type: cell-based, human; parameters: key to individual peptide showing maximal response in a single individual (asterisk): *: an asterisk indicates the eight individual peptides showing maximal response in a single individual; conditions: for number of subjects with > 70% maximal response / subjects with at least 40% maximal peptide response: 17 subjects
Protocol: Peptides were initially dissolved in aqueous acetonitrile (50%). Peptides in aqueous acetonitrile were transferred to sterile 96-well plates and diluted in sterile PBS with 1 mM calcium (250 mcg/ml) and then incubated with tTG (25 mcg/ml) (Sigma T5398) for 6 h 37° C. and then stored frozen (−20° C.) until use.
(§1) IFNγ ELISpot assays (Mabtech, Sweden) were performed in 96-well plates (MAIP S-45, Millipore) in which each well contained 25 mcl of peptide solution and 100 mcl of PBMC (2-8×10^5/well) in RPMI containing 10% heat inactivated human AB serum. After development and drying, IFNγ ELISpot plates were assessed using the MAIP automated ELISpot plate counter. Data was then analysed according to a novel algorithm (Expectation Maximization: EM) to define and quantify interferon-gamma responses to 9mer sequences contained within the peptide library (see FIG. 3 and below). 9mer peptides were then rationalised according to an algorithm that assumes redundancy in T-cell recognition, the “IterativeCluster” algorithm (see FIG. 4 and below), by allowing groups of amino acids with similar chemical properties at any one position in the 9mer, or for glutamate to replace glutamine at any position (assuming deamidation may have occurred).
Secalin and hordein 20mer first round peptide libraries were assessed 3 days after completing rye (bread, 100 g/d for 3 days) or barley (boiled, 100 g/d for 3 days) challenge (“day 6” PBMC interferon gamma ELISPOT responses). Although iterative analysis using 2nd and 3rd round peptide libraries to define epitopes has not yet been performed, the 20mers pre-treated with tTG found to induce “potent” responses shared substantial structural similarity to the bioactive peptides identified after wheat challenge. […] The dominant (>70% maximal response) 20mer after rye challenge was usually […] (SEQ ID NO: 1769) (8/14 subjects), or occasionally […] (SEQ ID NO: 1770) (4/14), […] (SEQ ID NO: 1771) (1/14), […] (SEQ ID NO: 1772) (1/14) and/or […] (SEQ ID NO: 1773) (1/14). Additional peptides noted for greater than 40% maximal response in at least 1 subject include:
Typically, the dominant peptides after barley challenge included one of six peptide motifs, or were one of eight other individual 20mers “dominant” in only one of 17 subjects after barley challenge. The six motifs identified:
The barley hordein peptides showing at least 40% maximal peptide response in at least one subject include the following, wherein an asterisk indicates the eight individual peptides showing maximal response in a single individual: […]

[2] = tested on: PBMC from HLA-DQ2+ coeliac subjects; experiment: Interferon gamma ELISPOT, second round wheat gliadin and glutenin 16mer library; assay type: cell-based, human; conditions: 16mers pre-treated with transglutaminase, 18 or 28 subjects; for subjects with >70% of maximal peptide-specific response: normalized to individual's maximal response
From the text: 12mer peptides were then identified in which each potential deamidation site could be in position 4, 6 or 7 in the 9mer located within HLA-DQ2 binding groove (HLA-DQ2 anchors at these positions show a preference for glutamate). Candidate 12mer core epitope sequences were then flanked with glycine followed by the N-terminal residue present in the parent gliadin polypeptide and at the C-terminal by the C-terminal residue present in the parent gliadin polypeptide followed by glycine (i.e. GXXXXXXXQXXXXXXG (SEQ ID NO: 1936)). […]
as §1
All 2nd round 16mer peptides were assessed in at least 18 subjects. […] All 16mers identified for the second round Oxford library also fulfilled the selection criteria for the Melbourne second round library.
The second round peptide library data was analysed according to the “dominance” of peptide responses in the interferon gamma ELISPOT in individual subjects i.e. the percent response of an individual's PBMC to a specific peptide normalized against that individual's maximal peptide-induced response. Sequences of peptides that stimulated at least 40% of the maximal peptide-specific response in at least one subject are shown in Table 1 below. The dataset supports the consistency and “dominance” of peptides conforming to the sequences identified using the first round 20mer peptide library using the Expectation Maximization (EM) algorithm described above.

Sequence: FPLQPQQPFPQQPQQPFPQQ (Description of Artificial Sequence: Synthetic gluten peptide) [barley hordein 20mer]
- number of subjects with > 70% maximal response [1]: 0
- subjects with at least 40% maximal peptide response [1]: 1/17

Sequence: FPQPQEPFPQQPQQPFPLQP (Description of Artificial Sequence: Synthetic gluten peptide) [barley hordein 20mer]
- number of subjects with > 70% maximal response [1]: 0
- subjects with at least 40% maximal peptide response [1]: 1/17

Sequence: FPQYQIPTPLQPQQPFPQQP (Description of Artificial Sequence: Synthetic gluten peptide) [barley hordein 20mer]
- number of subjects with > 70% maximal response [1]: 1
- subjects with at least 40% maximal peptide response [1]: 2/17

Sequence: FQQPQQSYPVQPQQPFPQPQ (Description of Artificial Sequence: Synthetic gluten peptide) [barley hordein 20mer]
- number of subjects with > 70% maximal response [1]: 1
- subjects with at least 40% maximal peptide response [1]: 3/17

Sequence: LAAQLPAMCRLEGGGGLLAS (Description of Artificial Sequence: Synthetic gluten peptide) [barley hordein 20mer]
- number of subjects with > 70% maximal response [1]: 1
- subjects with at least 40% maximal peptide response [1]: 1/17

Sequence: LALQTLPAMCNVYIPP [wheat 16mer, second round library]
- subjects with 10-40% of maximal peptide-specific response [2]: Nil
- subjects with 40-70% of maximal peptide-specific response [2]: Nil
- subjects with <10% of maximal peptide-specific response [2]: 17/18
- subjects with >70% of maximal peptide-specific response [2]: Nil

Sequence: LEAVTSIALRTLPTMC [wheat 16mer, second round library]
- subjects with 10-40% of maximal peptide-specific response [2]: 1/18
- subjects with 40-70% of maximal peptide-specific response [2]: 1/18
- subjects with >70% of maximal peptide-specific response [2]: Nil

Sequence: LQQQCSPVAMPQRLAR [wheat 16mer, second round library]
- subjects with 10-40% of maximal peptide-specific response [2]: 11/28
- subjects with 40-70% of maximal peptide-specific response [2]: 1/28
- subjects with <10% of maximal peptide-specific response [2]: 15/28
- subjects with >70% of maximal peptide-specific response [2]: 1/28

Sequence: LQTLPSMCNVYIPPYC [wheat 16mer, second round library]
- subjects with 10-40% of maximal peptide-specific response [2]: Nil
- subjects with 40-70% of maximal peptide-specific response [2]: Nil
- subjects with <10% of maximal peptide-specific response [2]: 17/18
- subjects with >70% of maximal peptide-specific response [2]: Nil

Sequence: PFPQPPQQKYPEQPQQPFPW (Description of Artificial Sequence: Synthetic gluten peptide) [barley hordein 20mer]
- number of subjects with > 70% maximal response [1]: 1
- subjects with at least 40% maximal peptide response [1]: 1/17

Sequence: PFPQPQQPFPWQPQQPFPQP (Description of Artificial Sequence: Synthetic gluten peptide) [barley hordein 20mer]
- number of subjects with > 70% maximal response [1]: 0
- subjects with at least 40% maximal peptide response [1]: 6/17

Sequence: PFPQPQQPFSWQPQQPFLQP (Description of Artificial Sequence: Synthetic gluten peptide) [barley hordein 20mer]
- number of subjects with > 70% maximal response [1]: 0
- subjects with at least 40% maximal peptide response [1]: 1/17

Sequence: PFPQQPQQPFPQPQQPFRQQ (Description of Artificial Sequence: Synthetic gluten peptide) [barley hordein 20mer]
- number of subjects with > 70% maximal response [1]: 3
- subjects with at least 40% maximal peptide response [1]: 6/17

Sequence: PGQGQSGYYPTSPQQS [wheat 16mer, second round library]
- subjects with 10-40% of maximal peptide-specific response [2]: Nil
- subjects with 40-70% of maximal peptide-specific response [2]: 1/18
- subjects with <10% of maximal peptide-specific response [2]: 16/18
- subjects with >70% of maximal peptide-specific response [2]: 1/18

Sequence: PQGSEQIIPQQPFPLQPQPF (Description of Artificial Sequence: Synthetic gluten peptide) [barley hordein 20mer]
- number of subjects with > 70% maximal response [1]: 1
- subjects with at least 40% maximal peptide response [1]: 2/17

Sequence: PQPFPQQPIPQQPQPYPQQP (Description of Artificial Sequence: Synthetic gluten peptide) [barley hordein 20mer]
- number of subjects with > 70% maximal response [1]: 2
- subjects with at least 40% maximal peptide response [1]: 6/17

Sequence: PQPYPQQPQPFPQQPPFCQQ (Description of Artificial Sequence: Synthetic gluten peptide) [barley hordein 20mer]
- individual peptide showing maximal response in a single individual (asterisk) [1]: *
- number of subjects with > 70% maximal response [1]: 1
- subjects with at least 40% maximal peptide response [1]: 1/17

Sequence: PQQASPLQPQPQQASPLQPQ (Description of Artificial Sequence: Synthetic gluten peptide) [barley hordein 20mer]
- number of subjects with > 70% maximal response [1]: 1
- subjects with at least 40% maximal peptide response [1]: 1/17

Sequence: PQQPPFWPQQPFPQQPPFGL (Description of Artificial Sequence: Synthetic gluten peptide) [barley hordein 20mer]
- individual peptide showing maximal response in a single individual (asterisk) [1]: *
- number of subjects with > 70% maximal response [1]: 1
- subjects with at least 40% maximal peptide response [1]: 1/17

Sequence: PQQPQQPFPQPQQPFSWQPQ (Description of Artificial Sequence: Synthetic gluten peptide) [barley hordein 20mer]
- individual peptide showing maximal response in a single individual (asterisk) [1]: *
- number of subjects with > 70% maximal response [1]: 2
- subjects with at least 40% maximal peptide response [1]: 6/17

Sequence: QGQPGYYPTSPQQIGQ [wheat 16mer, second round library]
- subjects with 10-40% of maximal peptide-specific response [2]: 1/18
- subjects with 40-70% of maximal peptide-specific response [2]: 1/18
- subjects with <10% of maximal peptide-specific response [2]: 15/18
- subjects with >70% of maximal peptide-specific response [2]: 1/18

Sequence: QGQQGYYPISPQQSGQ [wheat 16mer, second round library]
- subjects with 10-40% of maximal peptide-specific response [2]: 1/18
- subjects with 40-70% of maximal peptide-specific response [2]: 1/18
- subjects with <10% of maximal peptide-specific response [2]: 15/18
- subjects with >70% of maximal peptide-specific response [2]: 1/18

Sequence: QGQQGYYPTSPQQPPQ [wheat 16mer, second round library]
- subjects with 10-40% of maximal peptide-specific response [2]: Nil
- subjects with 40-70% of maximal peptide-specific response [2]: 1/18
- subjects with <10% of maximal peptide-specific response [2]: Nil
- subjects with >70% of maximal peptide-specific response [2]: Nil

Sequence: QQGYYPISPQQLGQGQ [wheat 16mer, second round library]
- subjects with 10-40% of maximal peptide-specific response [2]: Nil
- subjects with 40-70% of maximal peptide-specific response [2]: 1/18
- subjects with <10% of maximal peptide-specific response [2]: Nil
- subjects with >70% of maximal peptide-specific response [2]: Nil

Sequence: QQGYYPTSPQQSGQGQ (QGQQGYYPTSPQQPPQ; Description of Artificial Sequence: Synthetic gluten peptide) [wheat 16mer, second round library]
- subjects with 10-40% of maximal peptide-specific response [2]: Nil
- subjects with 40-70% of maximal peptide-specific response [2]: 1/18
- subjects with <10% of maximal peptide-specific response [2]: 17/18
- subjects with >70% of maximal peptide-specific response [2]: Nil

Sequence: VAHAIIMHQQQQQQQE [wheat 16mer, second round library]
- subjects with 10-40% of maximal peptide-specific response [2]: 2/28
- subjects with 40-70% of maximal peptide-specific response [2]: 1/28
- subjects with <10% of maximal peptide-specific response [2]: 25/28
- subjects with >70% of maximal peptide-specific response [2]: Nil

Sequence: VPLYRTTTSVPFGVGT [wheat 16mer, second round library]
- subjects with 10-40% of maximal peptide-specific response [2]: Nil
- subjects with 40-70% of maximal peptide-specific response [2]: Nil
- subjects with <10% of maximal peptide-specific response [2]: 17/18
- subjects with >70% of maximal peptide-specific response [2]: Nil

Sequence: YVPPDCSTINVPYANI [wheat 16mer, second round library]
- subjects with 10-40% of maximal peptide-specific response [2]: 1/18
- subjects with 40-70% of maximal peptide-specific response [2]: 1/18
- subjects with <10% of maximal peptide-specific response [2]: 15/18
- subjects with >70% of maximal peptide-specific response [2]: 1/18
